Experimental data taken from patent US11857519B2, “Compounds and methods for the targeted degradation of enhancer of zeste homolog 2 polypeptide” (Arvinas Operations, Inc., priority 2016, dated 2024).

Target: T1, EZH2 (Homo sapiens, UniProt Q15910)
T1 construct: Protocol of the Cellular Assay of Target Protein Degradation (VCaP Cells, ELISA); endogenous in cells; host or cells: VCaP cells
Assay: Cellular assay of target protein degradation (VCaP cells, ELISA)
Format: cell-based
Conditions: 4 hours, protein degradation range at indicated concentration (relative to DMSO control)
Summary of the method: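 EZH2 level measured by sandwich ELISA (TMB, A450 minus A562 background) in lysates of VCaP cells. Cells had been cultured at least 3 days in 5% CSS RPMI before 4 h compound exposure in 0.1% DMSO.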

T1 sequence (Q15910 whole entry): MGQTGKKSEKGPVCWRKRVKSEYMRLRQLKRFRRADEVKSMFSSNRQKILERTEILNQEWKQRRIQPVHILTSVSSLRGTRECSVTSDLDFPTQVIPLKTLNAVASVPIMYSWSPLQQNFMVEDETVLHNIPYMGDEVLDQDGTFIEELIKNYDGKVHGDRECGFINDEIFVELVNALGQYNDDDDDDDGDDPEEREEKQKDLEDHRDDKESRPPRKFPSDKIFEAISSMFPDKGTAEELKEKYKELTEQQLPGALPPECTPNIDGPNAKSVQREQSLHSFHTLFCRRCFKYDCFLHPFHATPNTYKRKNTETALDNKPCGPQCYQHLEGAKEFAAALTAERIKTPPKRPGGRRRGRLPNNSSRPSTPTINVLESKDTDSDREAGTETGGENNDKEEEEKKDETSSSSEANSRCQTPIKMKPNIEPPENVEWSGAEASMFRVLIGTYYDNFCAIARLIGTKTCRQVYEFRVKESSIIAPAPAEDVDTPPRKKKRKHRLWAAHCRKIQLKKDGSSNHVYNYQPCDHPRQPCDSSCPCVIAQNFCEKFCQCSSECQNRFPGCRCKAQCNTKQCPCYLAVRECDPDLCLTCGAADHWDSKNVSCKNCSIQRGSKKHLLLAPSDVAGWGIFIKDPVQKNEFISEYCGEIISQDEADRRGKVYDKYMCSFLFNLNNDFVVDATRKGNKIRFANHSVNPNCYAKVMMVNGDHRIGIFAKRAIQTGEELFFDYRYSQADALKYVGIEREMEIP
T1 sequence (O75530 whole entry partner): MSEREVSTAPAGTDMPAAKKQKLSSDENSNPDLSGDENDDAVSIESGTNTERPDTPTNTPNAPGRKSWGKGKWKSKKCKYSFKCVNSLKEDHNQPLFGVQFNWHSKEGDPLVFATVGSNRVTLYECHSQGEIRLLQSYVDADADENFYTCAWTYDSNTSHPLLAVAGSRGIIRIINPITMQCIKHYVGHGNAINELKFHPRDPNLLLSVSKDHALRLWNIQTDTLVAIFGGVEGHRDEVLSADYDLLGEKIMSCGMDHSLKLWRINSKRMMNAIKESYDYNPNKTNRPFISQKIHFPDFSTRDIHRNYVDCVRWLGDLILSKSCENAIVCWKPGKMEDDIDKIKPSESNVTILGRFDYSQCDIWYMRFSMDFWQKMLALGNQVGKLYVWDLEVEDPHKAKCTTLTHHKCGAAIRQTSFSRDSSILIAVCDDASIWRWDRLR
T1 sequence (Q15022 whole entry partner): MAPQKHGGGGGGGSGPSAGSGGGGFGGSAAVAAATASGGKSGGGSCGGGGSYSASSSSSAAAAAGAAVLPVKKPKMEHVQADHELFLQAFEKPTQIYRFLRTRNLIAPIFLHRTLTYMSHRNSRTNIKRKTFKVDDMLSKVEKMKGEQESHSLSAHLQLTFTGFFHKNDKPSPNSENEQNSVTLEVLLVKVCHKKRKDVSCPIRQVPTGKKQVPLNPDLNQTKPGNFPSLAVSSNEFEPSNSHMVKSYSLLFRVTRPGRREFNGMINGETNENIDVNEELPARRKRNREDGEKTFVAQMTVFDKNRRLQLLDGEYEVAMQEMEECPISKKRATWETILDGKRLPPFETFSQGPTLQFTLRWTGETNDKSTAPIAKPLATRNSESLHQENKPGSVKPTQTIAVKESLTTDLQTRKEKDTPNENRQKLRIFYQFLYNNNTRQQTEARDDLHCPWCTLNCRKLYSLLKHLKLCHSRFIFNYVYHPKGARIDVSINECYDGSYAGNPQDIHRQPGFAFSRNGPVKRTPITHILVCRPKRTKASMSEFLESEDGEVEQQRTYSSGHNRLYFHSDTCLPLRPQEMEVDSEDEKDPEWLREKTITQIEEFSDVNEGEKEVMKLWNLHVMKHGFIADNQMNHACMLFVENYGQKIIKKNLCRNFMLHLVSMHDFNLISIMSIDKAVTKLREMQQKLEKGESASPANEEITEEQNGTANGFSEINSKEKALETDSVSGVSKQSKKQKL

`CCN(c1cc(-c2ccc(OCCOCCOCCOc3cc(-c4scnc4C)ccc3CNC(=O)[C@@H]3C[C@@H](O)CN3C(=O)[C@H](C(C)C)N3Cc4ccccc4C3=O)cc2)cc(C(=O)NCc2c(C)cc(C)[nH]c2=O)c1C)C1CCOCC1` [Compound 37, (2S,4R)-N-({2-[2-(2-{2-[4(3-{[(4,6-dimethyl-2-oxo-1,2-dihydropyridin-3-yl)methyl]carbamoyl}-5-[ethyl(oxan-4-yl)amino]-4-methylphenyl)phenoxy]ethoxy}ethoxy)ethoxy]-4-(4-methyl-1,3-thiazol-5-yl)phenyl}methyl)-4-hydroxy-1-[(2S)-3-methyl-2-(1-oxo-2,3-dihydro-1H-isoindol-2-yl)butanoyl]pyrrolidine-2-carboxamide] was tested, and the “percent target protein degradation class” value was “A (A = degradation more than 60%)”.

For `CCN(c1cc(-c2ccc(OCCOCCOc3cc(-c4scnc4C)ccc3CNC(=O)[C@@H]3C[C@@H](O)CN3C(=O)[C@H](C(C)C)N3Cc4ccccc4C3=O)cc2)cc(C(=O)NCc2c(C)cc(C)[nH]c2=O)c1C)C1CCOCC1` [Compound 38, (2S,4R)-N-{[2-(2-{2-[4-(3-{[(4,6-dimethyl-2-oxo-1,2-dihydropyridin-3-yl)methyl]carbamoyl}-5-[ethyl(oxan-4-yl)amino]-4-methylphenyl)phenoxy]ethoxy}ethoxy)-4-(4-methyl-1,3-thiazol-5-yl)phenyl]methyl}-4-hydroxy-1-[(2S)-3-methyl-2-(1-oxo-2,3-dihydro-1H-isoindol-2-yl)butanoyl]pyrrolidine-2-carboxamide], the “percent target protein degradation class” value was “B (B = degradation between 30% and 60%)”.

In the case of `CCN(c1cc(-c2ccc(OCCCOCCCOCCCOc3cc(-c4scnc4C)ccc3CNC(=O)[C@@H]3C[C@@H](O)CN3C(=O)[C@H](C(C)C)N3Cc4ccccc4C3=O)cc2)cc(C(=O)NCc2c(C)cc(C)[nH]c2=O)c1C)C1CCOCC1` [Compound 39, (2S,4R)-N-({2-[3-(3-{3-[4-(3-{[(4,6-dimethyl-2-oxo-1,2-dihydropyridin-3-yl)methyl]carbamoyl}-5-[ethyl(oxan-4-yl)amino]-4-methylphenyl)phenoxy]propoxy}propoxy)propoxy]-4-(4-methyl-1,3-thiazol-5-yl)phenyl}methyl)-4-hydroxy-1-[(2S)-3-methyl-2-(1-oxo-2,3-dihydro-1H-isoindol-2-yl)butanoyl]pyrrolidine-2-carboxamide], the “percent target protein degradation class” value is reported as “B (B = degradation between 30% and 60%)”.

In the case of `CCN(c1cc(-c2ccc(OCCCCOCCCOc3cc(-c4scnc4C)ccc3CNC(=O)[C@@H]3C[C@@H](O)CN3C(=O)[C@H](C(C)C)N3Cc4ccccc4C3=O)cc2)cc(C(=O)NCc2c(C)cc(C)[nH]c2=O)c1C)C1CCOCC1` [Compound 40, (2S,4R)-N-{[2-(3-{4-[4-(3-{[(4,6-dimethyl-2-oxo-1,2-dihydropyridin-3-yl)methyl]carbamoyl}-5-[ethyl(oxan-4-yl)amino]-4-methylphenyl)phenoxy]butoxy}propoxy)-4-(4-methyl-1,3-thiazol-5-yl)phenyl]methyl}-4-hydroxy-1-[(2S)-3-methyl-2-(1-oxo-2,3-dihydro-1H-isoindol-2-yl)butanoyl]pyrrolidine-2-carboxamide], the “percent target protein degradation class” value is reported as “B (B = degradation between 30% and 60%)”.

With `CCN(c1cc(-c2ccc(OCCCOCC(=O)N[C@H](C(=O)N3C[C@H](O)C[C@H]3C(=O)NCc3ccc(-c4scnc4C)cc3)C(C)(C)C)cc2)cc(C(=O)NCc2c(C)cc(C)[nH]c2=O)c1C)C1CCOCC1` [Compound 41, (2S,4R)-1-[(2S)-2-(2-{3-[4-(3-{[(4,6-dimethyl-2-oxo-1,2-dihydropyridin-3-yl)methyl]carbamoyl}-5-[ethyl(oxan-4-yl)amino]-4-methylphenyl)phenoxy]propoxy}acetamido)-3,3-dimethylbutanoyl]-4-hydroxy-N-{[4-(4-methyl-1,3-thiazol-5-yl)phenyl]methyl}pyrrolidine-2-carboxamide] the “percent target protein degradation class” value was “A (A = degradation more than 60%)”.

In the case of `CCN(c1cc(-c2ccc(OCCOCCOCC(=O)N[C@H](C(=O)N3C[C@H](O)C[C@H]3C(=O)N[C@@H](C)c3ccc(-c4scnc4C)cc3)C(C)(C)C)cc2)cc(C(=O)NCc2c(C)cc(C)[nH]c2=O)c1C)C1CCOCC1` [Compound 43, (2S,4R)-1-[(2S)-2-[2-(2-{2-[4-(3-{[(4,6-dimethyl-2-oxo-1,2-dihydropyridin-3-yl)methyl]carbamoyl}-5-[ethyl(oxan-4-yl)amino]-4-methylphenyl)phenoxy]ethoxy}ethoxy)acetamido]-3,3-dimethylbutanoyl]-4-hydroxy-N-[(1S)-1-[4-(4-methyl-1,3-thiazol-5-yl)phenyl]ethyl]pyrrolidine-2-carboxamide], the “percent target protein degradation class” value is reported as “A (A = degradation more than 60%)”.

In the case of `CCN(c1cc(-c2ccc(CCCOCCCCC(=O)N[C@H](C(=O)N3C[C@H](O)C[C@H]3C(=O)NCc3ccc(-c4scnc4C)cc3)C(C)(C)C)cc2)cc(C(=O)NCc2c(C)cc(C)[nH]c2=O)c1C)C1CCOCC1` [Compound 44, (2S,4R)-1-[(2S)-2-(5-{3-[4-(3-{[(4,6-dimethyl-2-oxo-1,2-dihydropyridin-3-yl)methyl]carbamoyl}-5-[ethyl(oxan-4-yl)amino]-4-methylphenyl)phenyl]propoxy}pentanamido)-3,3-dimethylbutanoyl]-4-hydroxy-N-{[4-(4-methyl-1,3-thiazol-5-yl)phenyl]methyl}pyrrolidine-2-carboxamide], the “percent target protein degradation class” value is reported as “B (B = degradation between 30% and 60%)”.

With `CCN(c1cc(-c2ccc(OCCCOCCOCC(=O)N[C@H](C(=O)N3C[C@H](O)C[C@H]3C(=O)NCc3ccc(-c4scnc4C)cc3)C(C)(C)C)cc2)cc(C(=O)NCc2c(C)cc(C)[nH]c2=O)c1C)C1CCOCC1` [Compound 45, (2S,4R)-1-[(2S)-2-[2-(2-{3-[4-(3-{[(4,6-dimethyl-2-oxo-1,2-dihydropyridin-3-yl)methyl]carbamoyl}-5-[ethyl(oxan-4-yl)amino]-4-methylphenyl)phenoxy]propoxy}ethoxy)acetamido]-3,3-dimethylbutanoyl]-4-hydroxy-N-{[4-(4-methyl-1,3-thiazol-5-yl)phenyl]methyl}pyrrolidine-2-carboxamide] the “percent target protein degradation class” value was “B (B = degradation between 30% and 60%)”.

In the case of `CCN(c1cc(-c2ccc(OCCCCCOCC(=O)N[C@H](C(=O)N3C[C@H](O)C[C@H]3C(=O)NCc3ccc(-c4scnc4C)cc3)C(C)(C)C)cc2)cc(C(=O)NCc2c(C)cc(C)[nH]c2=O)c1C)C1CCOCC1` [Compound 46, (2S,4R)-1-[(2S)-2-[2-({5-[4-(3-{[(4,6-dimethyl-2-oxo-1,2-dihydropyridin-3-yl)methyl]carbamoyl}-5-[ethyl(oxan-4-yl)amino]-4-methylphenyl)phenoxy]pentyl}oxy)acetamido]-3,3-dimethylbutanoyl]-4-hydroxy-N-{[4-(4-methyl-1,3-thiazol-5-yl)phenyl]methyl}pyrrolidine-2-carboxamide], the “percent target protein degradation class” value is reported as “A (A = degradation more than 60%)”.

In the case of `CCN(c1cc(-c2ccc(CCCOCCOCC(=O)N[C@H](C(=O)N3C[C@H](O)C[C@H]3C(=O)NCc3ccc(-c4scnc4C)cc3)C(C)(C)C)cc2)cc(C(=O)NCc2c(C)cc(C)[nH]c2=O)c1C)C1CCOCC1` [Compound 47, (2S,4R)-1-[(2S)-2-[2-(2-{3-[4-(3-{[(4,6-dimethyl-2-oxo-1,2-dihydropyridin-3-yl)methyl]carbamoyl}-5-[ethyl(oxan-4-yl)amino]-4-methylphenyl)phenyl]propoxy}ethoxy)acetamido]-3,3-dimethylbutanoyl]-4-hydroxy-N-{[4-(4-methyl-1,3-thiazol-5-yl)phenyl]methyl}pyrrolidine-2-carboxamide], the “percent target protein degradation class” value is reported as “B (B = degradation between 30% and 60%)”.
